According to patent publication US12213957B2, “Use of aminoacetonitrile compounds for the treatment of infection and disease” (PITNEY PHARMACEUTICALS PTY LIMITED, priority 2020, dated 2025):
“And” between values parts separate entries of the source, which are not always exact repeats. Equal entries are not always repeated. Where two headings read alike, the source gives them in different places.

Key:
CHO cells = settings: no virus, read-out: CHO and cell 1050 values for MPLS treatment alone; cited from earlier work
SARS-CoV-2 [1] = format: cell-based; settings: Calu-3 human cells, concentrations from 3.00 μM down to 0.013 μM
SARS-CoV-2 [2] = format: cell-based; settings: 40 μM and 8 μM compared to 0.064 μM, p<0.001
[3] = Blood plasma levels in human patients; format: in vivo; settings: monepantel as Zolvix 5 mg/kg bw daily
Method: In a Phase 1 b clinical trial, monepantel administered as Zolvix daily to four human patients (PA02, PA04, PA06 and PA07) at 5 mg/kg bw provided an anticancer effect by computerised tomography (CT) scanning according to RECIST1.1 criteria. […] Evidence of mTOR pathway signalling inhibition in these patients was supported by the finding of decreased eurkaryotic translation initiation factor 4E-binding protein 1 (EIF-4EBP1) phosphorylation levels from the preparations of PBMCs from PA02, PA04 and PA06 (FIG. 1B). EIF-4EIBP1 phosphorylation levels were not assayed from preparations of PBMCs from PA07.
Blood plasma monepantel and monepantel sulfone levels of all four patients were recorded at intervals throughout treatment (Table 2).

SARS-CoV-2 [4] = format: cell-based
[5] = Blood plasma levels in pet dogs of the veterinary trial; format: in vivo, dog; settings: pet dogs, monepantel 179 mg/kg bw daily; one value per dog
Method: In a Phase 2 veterinary clinical trial, monepantel was administered as tablets daily to six pet dog patients (dog identification numbers: 001-001, 001-002, 001-003, 003-001, 004-002 and 004-003) with treatment naïve B cell lymphoma at a target dose of 179 mg/kg bw. Superficial tumour lesions were measured with calipers, while lesions within the body were assessed by X-Ray, ultrasound, computer tomography (CT) and/or physical palpitation. Baseline Day 0 (D0) predose caliper, X-Ray, ultrasound and CT measurements where available as well as a complete physical examination were recorded.
An inverse correlation between RECIST1.1 response and blood plasma levels of monepantel and monepantel sulfone was evident. The one dog (003-001) that achieved a partial response, recorded monepantel and […] of 0.1 and 6.7 μM, respectively.

[6] = system: VERO cells infected with SARS-CoV-2; format: cell-based; settings: approximately 10 μM MPLS

C[C@](C#N)(COc1cc(C#N)ccc1C(F)(F)F)NC(=O)c1ccc(S(=O)(=O)C(F)(F)F)cc1 [MPLS, monepantel sulfone]
toxic effect upon VERO cells infected with SARS-CoV-2 (LDH) (VERO cells): minimal toxic effect | toxicity caused by SARS-CoV-2 (VERO cells): appeared to increase toxicity | toxicity of VERO cells to SARS-CoV-2 infection (VERO cells): may slightly increase toxicity | toxicity to VERO cells (VERO cells): no signs of toxicity | toxicity to uninfected VERO cells (VERO cells): some toxicity | SARS-CoV-2 toxicity (VERO cells; African green monkey): does not apparently increase SARS-CoV-2 toxicity | IC50 (CHO cells): 74 µM | SARS-CoV-2 infectivity (TCID50) (SARS-CoV-2 [1]): reduced SARS-CoV-2 infectivity | SARS-CoV-2 RNA concentration in the media (qPCR) (SARS-CoV-2 [2]): significantly decreased | Blood plasma level of monepantel sulfone, Average ([3]; 0.25 h, average of patients): 0.00 ∞M | Blood plasma level of monepantel sulfone ([3]; 0.25 h, individual patients): 0 ng/ml (3×) and 5.4 ng/ml | Blood plasma level of monepantel sulfone, Average ([3]; 0.5 h, average of patients): 0.05 ∞M | Blood plasma level of monepantel sulfone ([3]; 0.5 h, individual patients): 8.63 ng/mL and 37.5 ng/mL and 32.1 ng/mL and 13.1 ng/mL | Blood plasma level of monepantel sulfone, Average ([3]; 1 h, average of patients): 0.29 ∞M | Blood plasma level of monepantel sulfone ([3]; 1 h, individual patients): 65.5 ng/mL and 152 ng/mL and 252 ng/mL and 125 ng/mL | Blood plasma level of monepantel sulfone, Average ([3]; 2 h, average of patients): 0.86 ∞M | Blood plasma level of monepantel sulfone ([3]; 2 h, individual patients): 266 ng/mL and 482 ng/mL and 639 ng/mL and 360 ng/mL | Blood plasma level of monepantel sulfone, Average ([3]; 4 h, average of patients): 1.77 ∞M | Blood plasma level of monepantel sulfone ([3]; 4 h, individual patients): 1050 ng/mL and 663 ng/mL and 1140 ng/mL | Blood plasma level of monepantel sulfone, Average ([3]; 8 h, average of patients): 1.13 ∞M | Blood plasma level of monepantel sulfone ([3]; 8 h, individual patients): 637 ng/mL and 398 ng/mL and 689 ng/mL | Blood plasma level of monepantel sulfone, Average ([3]; 12 h, average of patients): 0.68 ∞M | Blood plasma level of monepantel sulfone ([3]; 12 h, individual patients): 276 ng/mL and 348 ng/mL and 351 ng/mL | Blood plasma level of monepantel sulfone, Average ([3]; 24 h, average of patients): 0.45 ∞M | Blood plasma level of monepantel sulfone ([3]; 24 h, individual patients): 179 ng/mL and 258 ng/mL and 214 ng/mL | Blood plasma level of monepantel sulfone, Average ([3]; pre-dose D3, average of patients): 267.8 ng/ml and 0.53 ∞M | Blood plasma level of monepantel sulfone ([3]; pre-dose D3, individual patients): 269 ng/mL and 240 ng/mL and 285 ng/mL and 277 ng/mL | Blood plasma level of monepantel sulfone, Average ([3]; pre-dose D4, average of patients): 272.3 ng/ml and 0.54 ∞M | Blood plasma level of monepantel sulfone ([3]; pre-dose D4, individual patients): 291 ng/ml (2×) and 231 ng/ml and 276 ng/ml | Blood plasma level of monepantel sulfone, Average ([3]; pre-dose D5, average of patients): 238.3 ng/ml and 0.47 ∞M | Blood plasma level of monepantel sulfone ([3]; pre-dose D5, individual patients): 233 ng/mL and 229 ng/mL and 250 ng/mL and 241 ng/mL | Blood plasma level of monepantel sulfone, Average ([3]; pre-dose D6, average of patients): 214.3 ng/ml and 0.42 ∞M | Blood plasma level of monepantel sulfone ([3]; pre-dose D6, individual patients): 232 ng/mL and 205 ng/mL and 216 ng/mL and 204 ng/mL | Blood plasma level of monepantel sulfone, Average ([3]; pre-dose D7, average of patients): 205.0 ng/ml and 10.41 ∞M | Blood plasma level of monepantel sulfone ([3]; pre-dose D7, individual patients): 215 ng/mL and 188 ng/mL and 235 ng/mL and 182 ng/mL | Blood plasma level of monepantel sulfone, Average ([3]; pre-dose D14, average of patients): 148.0 ng/ml and 0.29 ∞M | Blood plasma level of monepantel sulfone ([3]; pre-dose D14, individual patients): 158 ng/mL and 131 ng/mL and 154 ng/mL and 149 ng/mL | Blood plasma level of monepantel sulfone, Average ([3]; pre-dose D21, average of patients): 147.0 ng/ml and 0.29 ∞M | Blood plasma level of monepantel sulfone ([3]; pre-dose D21, individual patients): 157 ng/mL and 146 ng/mL and 138 ng/mL | Blood plasma level of monepantel sulfone, Average ([3]; pre-dose D28, average of patients): 154.3 ng/ml and 0.31 ∞M | Blood plasma level of monepantel sulfone ([3]; pre-dose D28, individual patients): 180 ng/mL and 162 ng/mL and 121 ng/mL | concentration at 0.25 h ([3]; plasma, oral, 5 mg/kg bw, 0.25 h, average of patients, read-out: Blood plasma level of monepantel sulfone, Average): 1.4 ng/mL | concentration at 0.5 h ([3]; plasma, oral, 5 mg/kg bw, 0.5 h, average of patients, read-out: Blood plasma level of monepantel sulfone, Average): 22.8 ng/mL | concentration at 1 h ([3]; plasma, oral, 5 mg/kg bw, 1 h, average of patients, read-out: Blood plasma level of monepantel sulfone, Average): 149 ng/mL | concentration at 2 h ([3]; plasma, oral, 5 mg/kg bw, 2 h, average of patients, read-out: Blood plasma level of monepantel sulfone, Average): 437 ng/mL | concentration at 4 h ([3]; plasma, oral, 5 mg/kg bw, 4 h, average of patients, read-out: Blood plasma level of monepantel sulfone, Average): 896 ng/mL | concentration at 4 h ([3]; plasma, oral, 5 mg/kg bw, 4 h, individual patients, read-out: Blood plasma level of monepantel sulfone): 732 ng/mL | concentration at 8 h ([3]; plasma, oral, 5 mg/kg bw, 8 h, average of patients, read-out: Blood plasma level of monepantel sulfone, Average): 572 ng/mL | concentration at 8 h ([3]; plasma, oral, 5 mg/kg bw, 8 h, individual patients, read-out: Blood plasma level of monepantel sulfone): 565 ng/mL | concentration at 12 h ([3]; plasma, oral, 5 mg/kg bw, 12 h, average of patients, read-out: Blood plasma level of monepantel sulfone, Average): 346 ng/mL | concentration at 12 h ([3]; plasma, oral, 5 mg/kg bw, 12 h, individual patients, read-out: Blood plasma level of monepantel sulfone): 409 ng/mL | concentration at 24 h ([3]; plasma, oral, 5 mg/kg bw, 24 h, average of patients, read-out: Blood plasma level of monepantel sulfone, Average): 226 ng/mL | concentration at 24 h ([3]; plasma, oral, 5 mg/kg bw, 24 h, individual patients, read-out: Blood plasma level of monepantel sulfone): 254 ng/mL | SARS-CoV-2 infectivity (TCID50, repeat experiment) compared to no treatment (SARS-CoV-2 [4]; MPLS 11.11 μM (highest concentration), VERO cells): significantly reduces SARS-CoV-2 infectivity | pathogenicity of VERO cell culture media following infection (TCID50) (SARS-CoV-2 [4]; MPLS 8 and 40 μM, strong trend): reduce the pathogenicity | Blood plasma Monepantel sulfone Day 24 [5]: 26.1 µM | protection against cell death following infection with SARS-CoV-2 [6]: almost completely protected VERO cell against cell death
